Data taken from PMC7023466, “Novel N,N′-Disubstituted Acylselenoureas as Potential Antioxidant and Cytotoxic Agents” (Antioxidants, 2020).

Key:
HTB-54 cells = experiment: MTT cell viability assay, HTB-54; assay type: cell-based; settings: Homo sapiens, HTB-54, 48 h; for activity at 10 µM / activity at 50 µM: read-out: Growth (%) HTB-54
Protocol: (§1) The cell viability assay of each compound was carried out using the MTT assay. Each compound was dissolved in dimethyl sulfoxide (DMSO) at a concentration of 0.01 M. Serial dilutions were prepared with a non-supplemented culture medium. The effect of each compound on the cell viability was determined at two different concentrations (10 and 50 µM) in MCF-7, HTB-54, and HT-29 cells. In addition, the selected compounds were tested at six different concentrations between 0.1–100 µM in MCF-7, T47D, H1299, HTB-54, and 184B5 cells.
(§2) Briefly, 1 × 10^4 tumor cells/well or 2 × 10^4 non-tumorigenic cells/well were grown in 96-well plates for 12 h. Then, these cells were incubated with either DMSO (control) or a different concentration of each of the tested compounds for 48 h. Three hours before the termination point, 20 µL of MTT were added to measure the cellular viability. The resultant formazan crystals were dissolved in 50 µL of DMSO, and the absorbance was measured at 570 and 630 nm. The results are expressed as IC50, the half maximal inhibitory concentration. This value was calculated using OriginPro 8.5.1. software (OriginLab, Northampton, MA, USA) by nonlinear curve fitting. Furthermore, the selectivity index (SI) was calculated as the ratio of the IC50 values determined for the non-malignant and the tumor cells (IC50 (184B5)/IC50 (MCF-7). The data were obtained from at least three independent experiments performed in quadruplicates.

184B5 cells = experiment: MTT cell viability assay, non-malignant 184B5; assay type: cell-based; settings: Homo sapiens, non-malignant breast cells, 48 h
Protocol: as §1, §2

MCF-7 cells = experiment: MTT cell viability assay, MCF-7; assay type: cell-based, human; settings: for activity at 10 µM / activity at 50 µM: read-out: Growth (%) MCF-7
Protocol: as §1, §2

T47D cells = experiment: MTT cell viability assay, T47D; assay type: cell-based; settings: Homo sapiens, breast cancer cells, 48 h
Protocol: as §1, §2

HT-29 cells = experiment: MTT cell viability assay, HT-29; assay type: cell-based; settings: Homo sapiens, 48 h, read-out: Growth (%) HT-29
Protocol: as §1, §2

H1299 cells = experiment: MTT cell viability assay, H1299; assay type: cell-based; settings: Homo sapiens, NCI-H1299, lung cancer cells, 48 h
Protocol: as §1, §2

| SMILES | activity at 10 µM (HTB-54 cells) [%] | activity at 50 µM (HTB-54 cells) [%] | IC50 (HTB-54 cells; lung cancer cells, MTT, read-out: IC50 HTB-54) [µM] | IC50 (184B5 cells) [µM] | activity at 10 µM (MCF-7 cells; Homo sapiens, MCF7, 48 h) [%] | activity at 50 µM (MCF-7 cells; Homo sapiens, MCF7, 48 h) [%] | IC50 (MCF-7 cells; Homo sapiens, MCF7, breast cancer cells, 48 h, MTT, read-out: IC50 MCF-7) [µM] | SI (selectivity index) (MCF-7 cells; IC50 (184B5)/IC50 (MCF-7)) | IC50 (T47D cells) [µM] | activity at 10 µM (HT-29 cells) [%] | activity at 50 µM (HT-29 cells) [%] | IC50 (H1299 cells) [µM] |
| --- | --- | --- | --- | --- | --- | --- | --- | --- | --- | --- | --- | --- |
| O=C(NC(=[Se])Nc1ccc(C(F)(F)F)cc1)c1ccc2c(c1)OCO2 [Compound 10d] | 79.6 | 5.1 | 23.4 ± 3.2 | > 100 | 60.6 | 8.4 | 7.9 ± 0.7 | >12.7 | 11.8 ± 1.9 | 66.5 | 13.9 | 5.7 ± 0.1 |
| O=C(NC(=[Se])Nc1ccc(C(F)(F)F)cc1)c1ccco1 [Compound 6d] | 59.4 | 4.6 | – | – | 71.7 | 11.9 | – | – | – | 81.5 | 18.7 | – |
| O=C(C=Cc1ccccc1)NC(=[Se])Nc1ccc(C(F)(F)F)cc1 [Compound 8d] | 90 | 41.1 | – | – | 91.1 | 18.5 | – | – | – | 76 | 37.3 | – |
| O=C(/C=C/c1ccccc1)NC(=[Se])Nc1ccccc1 [Compound 8a] | 65.2 | 49.7 | – | – | 75.8 | 15.3 | – | – | – | 98.6 | 34.2 | – |
| Cc1ccc(NC(=[Se])NC(=O)c2cc3ccccc3s2)cc1 [Compound 9b] | 79 | 19 | – | – | 76.8 | 62.8 | – | – | – | 64.3 | 36.2 | – |
| Cc1ccc(NC(=[Se])NC(=O)c2ccco2)cc1 [Compound 6b] | 73 | 1.6 | – | – | 64.9 | 5.8 | – | – | – | 87.6 | 48.4 | – |
| O=C(NC(=[Se])Nc1ccc(C(F)(F)F)cc1)c1cccnc1Cl [Compound 4d] | 90.5 | 62.2 | – | – | 67.1 | 48.9 | – | – | – | 103 | 62.2 | – |
| O=C(C=Cc1ccccc1)NC(=[Se])Nc1ccc(Cl)cc1 [Compound 8e] | 76.1 | 31.2 | – | – | 69.6 | 11.8 | – | – | – | 85.2 | 40.6 | – |
| O=C(NC(=[Se])Nc1ccccc1)c1cccnc1Cl [Compound 4a] | 83.1 | 67.6 | – | – | 68.8 | 29.3 | – | – | – | 99.1 | 34.1 | – |
| O=C(NC(=[Se])Nc1ccc(Cl)cc1)c1ccco1 [Compound 6e] | 84.1 | 4 | – | – | 62.7 | 11.2 | – | – | – | 75.2 | 31.1 | – |
| COc1ccc(NC(=[Se])NC(=O)c2cccs2)cc1 [Compound 5c] | 85 | 60.2 | – | – | 90.7 | 11.8 | – | – | – | 57.5 | 34.6 | – |
| Cc1ccc(NC(=[Se])NC(=O)c2cccnc2Cl)cc1 [Compound 4b] | 87 | 64.8 | – | – | 77.6 | 32.4 | – | – | – | 99.2 | 51.7 | – |
| O=C(NC(=[Se])Nc1ccc(Cl)cc1)c1cccs1 [Compound 5e] | 73.2 | 58.1 | – | – | 77.6 | 20.8 | – | – | – | 78.1 | 37.8 | – |
| O=C(NC(=[Se])Nc1ccc(Cl)cc1)c1ccccc1Cl [Compound 2e] | 96.7 | 18.6 | – | – | 118 | 16 | – | – | – | 77.8 | 57.9 | – |
| COc1ccc(NC(=[Se])NC(=O)c2cc(SC)ccc2Cl)cc1 [Compound 3c] | 79 | 27.6 | – | – | 73.9 | 23.7 | – | – | – | 67.9 | 44.4 | – |
| CSc1ccc(Cl)c(C(=O)NC(=[Se])Nc2ccc(Cl)cc2)c1 [Compound 3e] | 79.4 | 35.8 | – | – | 105 | 32.4 | – | – | – | 76.6 | 73 | – |

| SMILES | activity at 10 µM (HTB-54 cells) [%] | activity at 50 µM (HTB-54 cells) [%] | IC50 (HTB-54 cells; lung cancer cells, MTT, read-out: IC50 HTB-54) [µM] | IC50 (184B5 cells) [µM] | activity at 10 µM (MCF-7 cells; Homo sapiens, MCF7, 48 h) [%] | activity at 50 µM (MCF-7 cells; Homo sapiens, MCF7, 48 h) [%] | IC50 (MCF-7 cells; Homo sapiens, MCF7, breast cancer cells, 48 h, MTT, read-out: IC50 MCF-7) [µM] | SI (selectivity index) (MCF-7 cells; IC50 (184B5)/IC50 (MCF-7)) | IC50 (T47D cells) [µM] | activity at 10 µM (HT-29 cells) [%] | activity at 50 µM (HT-29 cells) [%] | IC50 (H1299 cells) [µM] |
| --- | --- | --- | --- | --- | --- | --- | --- | --- | --- | --- | --- | --- |
| COc1ccc(NC(=[Se])NC(=O)c2ccco2)cc1 [Compound 6c] | 74.2 | 3.8 | – | – | 70 | 13.1 | – | – | – | 74.5 | 35.9 | – |
| COc1ccc(NC(=[Se])NC(=O)C23CC4CC(CC(C4)C2)C3)cc1 [Compound 7c] | 98.4 | 48.3 | – | – | 91.8 | 24.3 | – | – | – | 59.6 | 34 | – |
| Cc1ccc(NC(=[Se])NC(=O)c2ccccc2)cc1 [Compound 1b] | 75.8 | 61.1 | – | – | 64.2 | 12.6 | – | – | – | 60.4 | 28 | – |
| O=C(NC(=[Se])Nc1ccc(Cl)cc1)C12CC3CC(CC(C3)C1)C2 [Compound 7e] | 111 | 36.4 | – | – | 83.9 | 39 | – | – | – | 53.5 | 45.9 | – |
| COc1ccc(NC(=[Se])NC(=O)c2cccnc2Cl)cc1 [Compound 4c] | 88.9 | 68.5 | – | – | 86.6 | 33 | – | – | – | 99.1 | 51.6 | – |
| Cc1ccc(NC(=[Se])NC(=O)c2cccs2)cc1 [Compound 5b] | 66.8 | 66.7 | – | – | 64.2 | 17.5 | – | – | – | 82.8 | 36.8 | – |
| CSc1ccc(Cl)c(C(=O)NC(=[Se])Nc2ccccc2)c1 [Compound 3a] | 88.8 | 49.9 | – | – | 84.1 | 23.1 | – | – | – | 71.1 | 42.7 | – |
| O=C(NC(=[Se])Nc1ccc(C(F)(F)F)cc1)c1ccccc1Cl [Compound 2d] | 100 | 37.6 | – | – | 94.2 | 10.4 | – | – | – | 87.1 | 51.7 | – |
| O=C(NC(=[Se])Nc1ccc(Cl)cc1)c1cccnc1Cl [Compound 4e] | 92.1 | 63.5 | – | – | 90.6 | 60.2 | – | – | – | 93.4 | 67 | – |
| COc1ccc(NC(=[Se])NC(=O)c2ccccc2Cl)cc1 [Compound 2c] | 84.9 | 66.7 | – | – | 62.6 | 26.4 | – | – | – | 76.3 | 44.8 | – |
| O=C(NC(=[Se])Nc1ccc(C(F)(F)F)cc1)C12CC3CC(CC(C3)C1)C2 [Compound 7d] | 92.9 | 79.8 | – | – | 87.9 | 25.3 | – | – | – | 49.5 | 29.6 | – |
| O=C(NC(=[Se])Nc1ccccc1)c1cc2ccccc2s1 [Compound 9a] | 66.9 | 3.3 | – | – | 64.9 | 43.4 | – | – | – | 62 | 28.6 | – |
| O=C(NC(=[Se])Nc1ccccc1)c1cccs1 [Compound 5a] | 76.8 | 43.7 | – | – | 70.3 | 27.4 | – | – | – | 73.5 | 39 | – |
| O=C(NC(=[Se])Nc1ccccc1)c1ccccc1 [Compound 1a] | 67.8 | 57.1 | – | – | 70.5 | 6.6 | – | – | – | 56.9 | 23.4 | – |
| O=C(NC(=[Se])Nc1ccc(C(F)(F)F)cc1)c1ccccc1 [Compound 1d] | 84.9 | 38.7 | – | – | 73.6 | 21.9 | – | – | – | 97.3 | 25.1 | – |
| Cc1ccc(NC(=[Se])NC(=O)c2ccccc2Cl)cc1 [Compound 2b] | 87.9 | 66.6 | – | – | 60.1 | 24.7 | – | – | – | 80.2 | 46.1 | – |
